Laboratory results reported in US8865724B2, “Preparation of 2-methyl-4-amino-5(substituted-1H-1,2,3-triazolyl)methylpyrimidine derivatives and microbicidal activity thereof” (Central China Normal University, priority 2011, dated 2014).

tested on: not given; experiment: not given; conditions: not given

First: Cc1ncc(Cn2cc(CNC(=O)c3ccccc3Br)nn2)c(N)n1 [Compound 52]
Second: Cc1ncc(Cn2cc(CNC(=O)c3ccccc3F)nn2)c(N)n1 [Compound 46]
The melting point of the first is higher: 233 to 234 °C for the first, 205 to 206 °C for the second.

`Cc1ncc(Cn2nnc(COC(=O)c3ccc([N+](=O)[O-])cc3Cl)c2I)c(N)n1` [Compound 96] and `Cc1ncc(Cn2nnc(CNC(=O)c3ccc([N+](=O)[O-])cc3Cl)c2I)c(N)n1` [Compound 107] fall in the same range of melting point: 183 to 184 °C for the first, 183 to 184 °C for the second.

`Cc1ncc(Cn2cc(COC(=O)COc3ccc(F)cc3Cl)nn2)c(N)n1` [Compound 60] and `Cc1ncc(Cn2cc(COC(=O)COc3ccc([N+](=O)[O-])cc3Cl)nn2)c(N)n1` [Compound 67] cannot be ordered by melting point: 144 to 146 °C for the first, 145 to 148 °C for the second.

Compared with `COc1ccc(OCC(=O)OCc2cn(Cc3cnc(C)nc3N)nn2)cc1` [Compound 58], `Cc1ccc(OCC(=O)OCc2cn(Cc3cnc(C)nc3N)nn2)cc1` [Compound 57] is higher in melting point: 128 to 129 °C for the first, 149 to 151 °C for the second.

Compared with `Cc1ncc(Cn2cc(COC(=O)COc3ccc(Cl)cc3)nn2)c(N)n1` [Compound 56], `Cc1ncc(Cn2cc(COC(=O)COc3ccc([N+](=O)[O-])cc3)nn2)c(N)n1` [Compound 66] is lower in melting point: 152 to 153 °C for the first, 145 to 148 °C for the second.

Compared with `COc1ccc(OCC(=O)NCc2cn(Cc3cnc(C)nc3N)nn2)cc1` [Compound 75], `Cc1ccc(OCC(=O)NCc2cn(Cc3cnc(C)nc3N)nn2)cc1` [Compound 70] is lower in melting point: 165 to 166 °C for the first, 117 to 119 °C for the second.

First: Cc1ncc(Cn2cc(COC(=O)c3cccc([N+](=O)[O-])c3)nn2)c(N)n1 [Compound 41]
Second: Cc1ncc(Cn2cc(CNC(=O)c3cccc([N+](=O)[O-])c3)nn2)c(N)n1 [Compound 53]
The melting point of the first is lower: 159 to 160 °C for the first, 188 to 189 °C for the second.

First: Cc1ncc(Cn2cc(CNC(=O)COc3ccccc3)nn2)c(N)n1 [Compound 78]
Second: Cc1ncc(Cn2cc(CNC(=O)COc3ccccc3Cl)nn2)c(N)n1 [Compound 69]
The melting point of the first is lower: 168 to 169 °C for the first, 201 to 202 °C for the second.

First: Cc1ncc(Cn2nnc(COC(=O)c3ccc(Cl)cc3)c2I)c(N)n1 [Compound 91]
Second: Cc1ccc(C(=O)OCc2nnn(Cc3cnc(C)nc3N)c2I)cc1 [Compound 92]
The melting point of the first is lower: 192 to 193 °C for the first, 200 to 201 °C for the second.

First: Cc1ncc(Cn2cc(COC(=O)COc3ccc(Cl)c(C)c3)nn2)c(N)n1 [Compound 55]
Second: Cc1ncc(Cn2cc(COC(=O)COc3ccc(Cl)cc3C)nn2)c(N)n1 [Compound 59]
The melting point of the first is higher: 163 to 165 °C for the first, 138 to 140 °C for the second.

First: Cc1ncc(Cn2cc(CNC(=O)c3cccc(Cl)c3)nn2)c(N)n1 [Compound 50]
Second: Cc1ncc(Cn2cc(CNC(=O)c3ccc(Cl)cc3)nn2)c(N)n1 [Compound 48]
The melting point of the first is higher: 213 to 214 °C for the first, 165 to 167 °C for the second.

First: Cc1ncc(Cn2cc(CNC(=O)c3ccccc3Cl)nn2)c(N)n1 [Compound 49]
Second: Cc1ncc(Cn2nnc(CNC(=O)c3ccccc3Cl)c2I)c(N)n1 [Compound 100]
The melting point of the first is higher: 217 to 218 °C for the first, 186 to 188 °C for the second.

First: Cc1ncc(Cn2cc(COC(=O)c3ccccc3Br)nn2)c(N)n1 [Compound 40]
Second: Cc1ncc(Cn2nnc(COC(=O)c3ccccc3Br)c2I)c(N)n1 [Compound 98]
The melting point of the first is lower: 174 to 176 °C for the first, 200 to 202 °C for the second.

First: Cc1ncc(Cn2cc(CNC(=O)c3ccc([N+](=O)[O-])cc3)nn2)c(N)n1 [Compound 47]
Second: Cc1ccc(C(=O)NCc2cn(Cc3cnc(C)nc3N)nn2)cc1 [Compound 45]
The melting point of the first is higher: 239 to 240 °C for the first, 132 to 133 °C for the second.

`Cc1ncc(Cn2cc(CNC(=O)COc3cccc(C)c3C)nn2)c(N)n1` [Compound 77] and `Cc1ncc(Cn2cc(COC(=O)COc3cccc(C)c3C)nn2)c(N)n1` [Compound 63] cannot be ordered by melting point: 169 to 170 °C for the first, 168 to 171 °C for the second.

Compared with `Cc1ncc(Cn2cc(CNC(=O)COc3ccc([N+](=O)[O-])cc3Cl)nn2)c(N)n1` [Compound 72], `Cc1ncc(Cn2cc(CNC(=O)COc3ccc(F)cc3Cl)nn2)c(N)n1` [Compound 79] is lower in melting point: 183 to 184 °C for the first, 125 to 126 °C for the second.

First: Cc1ncc(Cn2cc(CNC(=O)COc3ccc(Cl)cc3)nn2)c(N)n1 [Compound 71]
Second: Cc1ncc(Cn2cc(CNC(=O)COc3ccc(Br)cc3)nn2)c(N)n1 [Compound 74]
The melting point of the first is higher: 124 to 125 °C for the first, 105 to 106 °C for the second.

First: Cc1ncc(Cn2nnc(COC(=O)c3ccc([N+](=O)[O-])cc3)c2I)c(N)n1 [Compound 95]
Second: Cc1ncc(Cn2nnc(COC(=O)c3cccc([N+](=O)[O-])c3)c2I)c(N)n1 [Compound 97]
The melting point of the first is lower: 192 to 193 °C for the first, 201 to 202 °C for the second.

First: Cc1ncc(Cn2nnc(COc3ccccc3Br)c2I)c(N)n1 [Compound 85]
Second: Cc1ncc(Cn2nnc(COc3ccccc3[N+](=O)[O-])c2I)c(N)n1 [Compound 80]
The melting point of the first is lower: 145 to 147 °C for the first, 178 to 180 °C for the second.

First: Cc1ncc(Cn2nnc(COC(=O)c3ccccc3Cl)c2I)c(N)n1 [Compound 89]
Second: Cc1ncc(Cn2nnc(COC(=O)c3ccccc3F)c2I)c(N)n1 [Compound 93]
The melting point of the first is lower: 185 to 187 °C for the first, 187 to 188 °C for the second.

First: Cc1ncc(Cn2cc(COC(=O)c3ccc([N+](=O)[O-])cc3Cl)nn2)c(N)n1 [Compound 42]
Second: Cc1ncc(Cn2cc(COC(=O)COc3ccccc3[N+](=O)[O-])nn2)c(N)n1 [Compound 65]
The melting point of the first is lower: 129 to 130 °C for the first, 158 to 160 °C for the second.

First: Cc1ncc(Cn2nnc(COc3ccc([N+](=O)[O-])cc3Cl)c2I)c(N)n1 [Compound 30]
Second: Cc1ncc(Cn2nnc(COc3ccc(Cl)cc3Cl)c2I)c(N)n1 [Compound 83]
The melting point of the first is higher: 223 to 225 °C for the first, 176 to 177 °C for the second.

Compared with `Cc1ncc(Cn2cc(COc3ccccc3C)nn2)c(N)n1` [Compound 18], `Cc1cccc(OCc2cn(Cc3cnc(C)nc3N)nn2)c1` [Compound 19] is lower in melting point: 153 to 154 °C for the first, 58 to 59 °C for the second.

First: Cc1ncc(Cn2cc(COc3ccc(Br)cc3)nn2)c(N)n1 [Compound 21]
Second: Cc1ccc(OCc2cn(Cc3cnc(C)nc3N)nn2)cc1 [Compound 17]
The melting point of the first is higher: 167 to 168 °C for the first, 157 to 158 °C for the second.

Compared with `Cc1ncc(Cn2nnc(CNC(=O)c3ccccc3F)c2I)c(N)n1` [Compound 105], `Cc1ncc(Cn2nnc(CNC(=O)c3ccccc3Br)c2I)c(N)n1` [Compound 109] is lower in melting point: 204 to 206 °C for the first, 200 to 202 °C for the second.

First: Cc1ncc(Cn2nnc(CNC(=O)c3ccccc3)c2I)c(N)n1 [Compound 102]
Second: Cc1ncc(Cn2nnc(CNC(=O)c3cccc(Cl)c3)c2I)c(N)n1 [Compound 99]
The melting point of the first is higher: 218 to 220 °C for the first, 197 to 198 °C for the second.

First: Cc1ncc(Cn2nnc(CNC(=O)c3ccc([N+](=O)[O-])cc3)c2I)c(N)n1 [Compound 101]
Second: Cc1ncc(Cn2nnc(CNC(=O)c3cccc([N+](=O)[O-])c3)c2I)c(N)n1 [Compound 108]
The melting point of the first is higher: 223 to 224 °C for the first, 202 to 204 °C for the second.

First: Cc1ncc(Cn2nnc(CNC(=O)c3ccc(Cl)cc3)c2I)c(N)n1 [Compound 103]
Second: Cc1ccc(C(=O)NCc2nnn(Cc3cnc(C)nc3N)c2I)cc1 [Compound 106]
The melting point of the first is higher: 231 to 233 °C for the first, 180 to 182 °C for the second.

Compared with `CCOC(=O)c1ccc(OCc2nnn(Cc3cnc(C)nc3N)c2I)cc1` [Compound 87], `Cc1ncc(Cn2nnc(COC(=O)c3ccc(F)cc3)c2I)c(N)n1` [Compound 94] is higher in melting point: 146 to 147 °C for the first, 207 to 209 °C for the second.

First: Cc1ncc(Cn2nnc(COC(=O)c3cccc(Cl)c3)c2I)c(N)n1 [Compound 90]
Second: Cc1ncc(Cn2nnc(COc3cccc(C(F)(F)F)c3)c2I)c(N)n1 [Compound 81]
The melting point of the first is higher: 185 to 187 °C for the first, 146 to 148 °C for the second.

First: Cc1ncc(Cn2cc(COC(=O)COc3cccc(C(F)(F)F)c3)nn2)c(N)n1 [Compound 62]
Second: Cc1ncc(Cn2cc(COC(=O)COc3ccc(C(C)(C)C)cc3)nn2)c(N)n1 [Compound 61]
The melting point of the first is higher: 138 to 140 °C for the first, 107 to 110 °C for the second.

First: Cc1ncc(Cn2cc(CNC(=O)c3ccc(F)cc3)nn2)c(N)n1 [Compound 44]
Second: Cc1ncc(Cn2nnc(CNC(=O)c3ccc(F)cc3)c2I)c(N)n1 [Compound 104]
The melting point of the first is lower: 211 to 212 °C for the first, 217 to 219 °C for the second.

Compared with `Cc1ncc(Cn2cc(COc3ccc(C#N)cc3)nn2)c(N)n1` [Compound 22], `Cc1ncc(Cn2cc(COc3ccc(F)cc3)nn2)c(N)n1` [Compound 20] is lower in melting point: 185 to 186 °C for the first, 178 to 179 °C for the second.

First: Cc1ncc(Cn2cc(COC(=O)COc3cc(Cl)c(Cl)c(Cl)c3)nn2)c(N)n1 [Compound 64]
Second: Cc1ncc(Cn2cc(CNC(=O)COc3ccc([N+](=O)[O-])cc3)nn2)c(N)n1 [Compound 73]
The melting point of the first is higher: 160 to 161 °C for the first, 143 to 144 °C for the second.

`Cc1ncc(Cn2cc(CNC(=O)c3ccc([N+](=O)[O-])cc3Cl)nn2)c(N)n1` [Compound 51] gave a melting point greater than 260 °C.

tested on: Rice Sheath Blight Disease; experiment: Microbicidal activity, spray then strip inoculation (Embodiment 8); conditions: Oryza sativa, read-out: Rice Sheath Blight Disease Average inhibition rate (%)
Experimental: (§1) (Pseudomonassyringaepv. tomato (Okabe) Young, Dye & Wilkie), Cucumber Angular Leaf Spot, Rice Sheath Blight Disease (Rhizoctonia solani), Corynespora Leaf Spot of Cucumber (Corynespora cassiicola), Downy Mildew of Cucumber (Cucumber Downy Mildew).
(§2) Testing agents and control agents were sprayed uniformly at A.M. of a sunshine day on the cucumber seminal leaves. After 2 hours, the leaves were inoculated with pathogenic microbes and cultured at humidity. […] Strip inoculation is used for Rice Sheath Blight Disease and phytophthora blight of pepper, in which the liquor was sprayed and after 2 hours, inoculation of strips was performed followed by culturing at humidity. After full occurrence of diseases in the control group, state of illness was examined according to grading standards, and a disease index and inhibition rate were calculated.

Compared with `COC(=O)NC(=S)Nc1ccccc1NC(=S)NC(=O)OC` [Thiophanate-methyl, reference compound], `COc1ccc(C(=CC(=O)N2CCOCC2)c2ccc(Cl)cc2)cc1OC` [Dimethomorph, reference compound] is higher in pest or weed control at 500 µg/g: 85% for the first, 90% for the second.

same assay, conditions: testing concentration of 500 μg/g

For jingangmycin [reference compound], the “Rice Sheath Blight Disease Average inhibition rate (%)” value was 70%.

tested on: Corynespora Leaf Spot of Cucumber; experiment: Microbicidal activity on cucumber seedlings, spray then spore inoculation (Embodiment 8); conditions: Corynespora, in Cucumis sativus, read-out: Corynespora Leaf Spot of Cucumber Average inhibition rate (%)
Experimental: as §1, §2

Compared with `COC(=O)NC(=S)Nc1ccccc1NC(=S)NC(=O)OC` [Thiophanate-methyl, reference compound], `COc1ccc(C(=CC(=O)N2CCOCC2)c2ccc(Cl)cc2)cc1OC` [Dimethomorph, reference compound] is lower in pest or weed control at 500 µg/g: 80% for the first, 70% for the second.

same assay, conditions: testing concentration of 500 μg/g

With jingangmycin [reference compound] the “Corynespora Leaf Spot of Cucumber Average inhibition rate (%)” value was 70%.

tested on: Downy Mildew of Cucumber; experiment: as above; conditions: Cucumis sativus, read-out: Downy Mildew of Cucumber Average inhibition rate (%)
Experimental: as §1, §2

First: COC(=O)NC(=S)Nc1ccccc1NC(=S)NC(=O)OC [Thiophanate-methyl, reference compound]
Second: COc1ccc(C(=CC(=O)N2CCOCC2)c2ccc(Cl)cc2)cc1OC [Dimethomorph, reference compound]
The pest or weed control at 500 µg/g of the first is lower: 20% for the first, 90% for the second.

same assay, conditions: testing concentration of 500 μg/g

In the case of jingangmycin [reference compound], the “Downy Mildew of Cucumber Average inhibition rate (%)” value is reported as 70%.
